What was measured:
HT-22 = experiment: Cytotoxicity against mouse HT-22 cells assessed as cell viability at 1.25 to 5 uM incubated for 24 hrs by CCK8 assay; format: toxicity, cell-based; conditions: ht-22, 24 h, dose 1.25-5 µM
N2a [1] = experiment: Cytotoxicity against mouse Neuro2a cells assessed as cell viability at 1.25 to 5 uM incubated for 24 hrs by CCK8 assay; format: toxicity, cell-based; conditions: dose 1.25-5 µM
N2a [2] = experiment: Induction of neuronal differentiation in mouse Neuro2a cells assessed as neurite elongation at 5 uM incubated for 48 hrs by DAPI staining based fluorescence microscopic analysis; format: functional, cell-based
N2a [3] = experiment: Induction of neuronal differentiation in mouse Neuro2a cells assessed as neurite formation at 5 uM incubated for 48 hrs by DAPI staining based fluorescence microscopic analysis; format: functional, cell-based

| Structure (SMILES) | Activity (HT-22) | other results |
| --- | --- | --- |
| COc1ccc([C@@H]2c3cc(OC)c(O)cc3C[C@@H](C)[C@H]2C)cc1O | Non-toxic | – |
| O[C@H]1CC[C@H]2CN3CCc4c([nH]c5ccccc45)[C@@H]3C[C@@H]2C1 | Non-toxic | – |
| C[C@@H]1CC[C@]2(C(=O)O)CC[C@]3(C)C(=CC[C@@H]4[C@@]5(C)CC[C@H](O[C@@H]6O[C@H](C(=O)O)[C@@H](O)[C@H](OS(=O)(=O)O)[C@H]6O)[C@@](C)(CO)[C@@H]5CC[C@]43C)[C@@H]2[C@]1(C)O | Non-toxic | – |
| C=C[C@H]1[C@H](O[C@@H]2O[C@H](CO)[C@@H](O)[C@H](O)[C@H]2O)OC=C(C(=O)O)[C@H]1CC(=O)O | Non-toxic | – |
| O=c1c(O[C@@H]2O[C@H](CO)[C@@H](O)[C@H](O)[C@H]2O)c(-c2ccc(O)c(O)c2)oc2cc(O)cc(O)c12 [ISOQUERCETIN] | Non-toxic | Activity (N2a [1]): Toxic; Activity (N2a [2]): Active; Significant Efficacy Observed; Activity (N2a [3]): Active; Significant Efficacy Observed |
| C[N+](C)(C)[C@H](Cc1c[nH]c2ccccc12)C(=O)[O-] [HYPAPHORINE] | Non-toxic | – |
| C=C(c1[nH]c2ccccc2c1CN1C/C(=C/C)[C@@H]2CC(=O)c3[nH]c4ccccc4c3C[C@H]1C2C(=O)OC)[C@H]1CCN(C)C/C1=C\C (stereo partly specified) | Non-toxic | Activity (N2a [1]): Toxic; Activity (N2a [2]): Active; Significant Efficacy Observed; Activity (N2a [3]): Active; Significant Efficacy Observed |
| C[C@@H]1O[C@@H](Oc2ccc(CNC(=S)NCc3ccc(O[C@@H]4O[C@@H](C)[C@H](O)[C@@H](O)[C@H]4O)cc3)cc2)[C@H](O)[C@H](O)[C@H]1O | Non-toxic | – |
| C[C@](O)(CC(=O)O)CC(=O)OC[C@H]1O[C@@H](OCc2ccccc2)[C@H](O)[C@@H](O)[C@@H]1O | Non-toxic | – |
| O=C(O)C1=CC[C@@H]2C(C(=O)O)=CO[C@@H](O[C@@H]3O[C@H](CO)[C@@H](O)[C@H](O)[C@H]3O)[C@H]12 [IXOSIDE] | Non-toxic | – |
| CC[C@H](CC[C@@H](C)[C@H]1CC[C@H]2[C@@H]3CC=C4C[C@@H](O[C@@H]5O[C@H](CO)[C@@H](O)[C@H](O)[C@H]5O)CC[C@]4(C)[C@H]3CC[C@]12C)C(C)C [SITOGLUSIDE] | Non-toxic | – |
| C[C@@H]1O[C@@H](OC[C@H]2O[C@@H](Oc3c(-c4ccc(O)cc4)oc4cc(O)cc(O)c4c3=O)[C@H](O)[C@@H](O)[C@@H]2O)[C@H](O)[C@H](O)[C@H]1O [NICOTIFLOROSIDE] | Non-toxic | – |
| O=c1cc(-c2ccccc2)oc2cc(O[C@@H]3O[C@H](CO[C@@H]4O[C@H](CO)[C@@H](O)[C@H](O)[C@H]4O)[C@@H](O)[C@H](O)[C@H]3O)c(O)c(O)c12 | Non-toxic | – |
| COc1cc2oc(-c3ccc(O)cc3)cc(=O)c2c(O)c1[C@@H]1O[C@H](CO)[C@@H](O)[C@H](O)[C@H]1O[C@@H]1O[C@H](CO)[C@@H](O)[C@H](O)[C@H]1O | Non-toxic | – |
| O=C1c2c(O)cc(O)cc2O[C@H](c2cc(O)cc(O)c2)[C@H]1O | Non-toxic | – |
| COC(=O)[C@@H](Cc1ccc(O)c(O)c1)OC(=O)/C=C/c1ccc(OC)c(O)c1 | Non-toxic | – |
| O=C(O)[C@H]1O[C@@H](O[C@@H]2[C@@H](O)[C@H](O)[C@@H](CO)O[C@H]2c2c(O)cc3oc(-c4ccc(O)c(O)c4)cc(=O)c3c2O)[C@H](O)[C@@H](O)[C@H]1O | Non-toxic | – |
| CC1=CC(=O)C[C@](C)(CO[C@@H]2O[C@H](CO)[C@@H](O)[C@H](O)[C@H]2O)[C@@]1(O)/C=C/C(C)=C/C(=O)O | Non-toxic | – |
| COc1cc(O)c(C(=O)CC(C)C)c2c1[C@@H]1C[C@H](C(C)C)C=C[C@]1(C)O2 | Non-toxic | – |
| O=C(O)[C@H]1O[C@@H](O[C@@H]2[C@@H](O)[C@@H](O)CO[C@H]2c2c(O)cc3oc(-c4ccc(O)c(O)c4)cc(=O)c3c2O)[C@H](O)[C@@H](O)[C@H]1O | Non-toxic | – |
| COc1cc([C@@H]2Oc3c(OC)cc(CCCO[C@@H]4O[C@H](CO)[C@@H](O)[C@H](O)[C@H]4O)cc3[C@H]2CO)ccc1O | Non-toxic | – |
| OC[C@H]1O[C@@H](Oc2c(O)cc(O)cc2[C@@H]2[C@@H](c3ccc(O)cc3)[C@H](c3ccc(O)cc3)[C@H]2c2cc(O)cc(O)c2O[C@@H]2O[C@H](CO)[C@@H](O)[C@H](O)[C@H]2O)[C@H](O)[C@@H](O)[C@@H]1O | Non-toxic | – |
| O=c1c(-c2ccc(O)cc2)coc2c([C@@H]3O[C@H](CO)[C@@H](O)[C@H](O)[C@H]3O)c(O)ccc12 [PUERARIN] | Non-toxic | – |
| O=C1c2c(O)cc(O[C@@H]3O[C@H](CO)[C@@H](O)[C@H](O)[C@H]3O)cc2O[C@]1(O)Cc1ccc(O)cc1 | Non-toxic | – |
| COc1cc([C@H](O)[C@H](CO)Oc2c(OC)cc([C@H](O)[C@H](O)CO)cc2OC)ccc1O (mixture of isomers) | Non-toxic | – |

— ChEMBL document CHEMBL6103668, “In-Silico Screening-Based Discovery of New Natural eEF2K Inhibitors with Neuritogenic Activity” (ACS Med Chem Lett, 2025)
